Test results from PubChem BioAssay (NCI).
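96-well plates; 48 h exposure; 5 concentrations. Endpoints by linear interpolation between flanking doses. Not reached: highest tested concentration assigned. GI50: concentration for 50% inhibition of growth. TGI: total growth inhibition.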

Assays:
Assay in all cases: NCI-60 cell line screen, 48 h
[1] = test system: UACC-62 melanoma
[2] = test system: SF-295 CNS
[3] = test system: T-47D breast
[4] = test system: CAKI-1 renal
[5] = test system: SK-MEL-2 melanoma
[6] = test system: KM12 colon
[7] = test system: HCT-15 colon
[8] = test system: LOX IMVI melanoma
[9] = test system: SW-620 colon
[10] = test system: CCRF-CEM leukemia
[11] = test system: OVCAR-4 ovarian
[12] = test system: HT29 colon
[13] = test system: RXF 393 renal
[14] = test system: UACC-257 melanoma
[15] = test system: NCI/ADR-RES ovarian
[16] = test system: DU-145 prostate
[17] = test system: SK-OV-3 ovarian
[18] = test system: K-562 leukemia
[19] = test system: SNB-19 CNS
[20] = test system: BT-549 breast
[21] = test system: SK-MEL-5 melanoma
[22] = test system: HCT-116 colon
[23] = test system: OVCAR-5 ovarian
[24] = test system: ACHN renal
[25] = test system: EKVX NSCLC
[26] = test system: MOLT-4 leukemia
[27] = test system: MDA-MB-231 breast
[28] = test system: NCI-H460 lung
[29] = test system: RPMI-8226 leukemia
[30] = test system: SK-MEL-28 melanoma
[31] = test system: HOP-62 NSCLC
[32] = test system: PC-3 prostate
[33] = test system: COLO 205 colon
[34] = test system: OVCAR-8 ovarian
[35] = test system: U251 CNS
[36] = test system: M14 melanoma
[37] = test system: UO-31 renal
[38] = test system: NCI-H226 lung
[39] = test system: SN12C renal
[40] = test system: SNB-75 CNS
[41] = test system: HL-60(TB) leukemia
[42] = test system: MDA-MB-435
[43] = test system: SR leukemia
[44] = test system: A498 renal
[45] = test system: OVCAR-3 ovarian
[46] = test system: IGROV1 ovarian
[47] = test system: SF-539 CNS
[48] = test system: NCI-H522 lung
[49] = test system: HOP-92 NSCLC
[50] = test system: TK-10 renal
[51] = test system: NCI-H23 lung
[52] = test system: MCF7 breast
[53] = test system: MDA-MB-468 breast
[54] = test system: 786-0 renal
[55] = test system: HCC-2998 colon
[56] = test system: MALME-3M melanoma
[57] = test system: A549 NSCLC
[58] = test system: HS 578T breast
[59] = test system: SF-268 CNS

Work on `Cc1ccc(-c2cc(C(=O)N=Nc3c(O)[nH]c4ccccc34)c3ccccc3n2)cc1` yielded a GI50 [1] of 12.7 µM, a TGI [1] of 32.1 µM and a GI50 [2] of 13.3 µM. The TGI [2] was 28.5 µM, the GI50 [3] was 5.38 µM and the TGI [3] was 47.3 µM. For the same compound, the GI50 [4] was 4.56 µM, the TGI [4] was 21.5 µM and the GI50 [5] was 23.9 µM. For the same compound, the TGI [5] was 60.4 µM, the GI50 [6] was 5.84 µM and the TGI [6] was 73.4 µM. For the same compound, the GI50 [7] was 3.87 µM, the TGI [7] was 17.9 µM and the GI50 [8] was 3.63 µM. It also gave a TGI [8] of 15.8 µM, a GI50 [9] of 6.07 µM and a TGI [9] of 34 µM. For the same compound, the GI50 [10] was 4.73 µM, the TGI [10] was over 100 µM and the GI50 [11] was 3.43 µM. The TGI [11] was 26.6 µM, the GI50 [12] was 7.14 µM and the TGI [12] was 25.8 µM. The GI50 [13] was 1.88 µM, the TGI [13] was 6.11 µM and the GI50 [14] was 14.3 µM. It also gave a TGI [14] of 32.2 µM, a GI50 [15] of 2.24 µM and a TGI [15] of 6.11 µM. For the same compound, the GI50 [16] was 5.48 µM, the TGI [16] was 37.6 µM and the GI50 [17] was 18.1 µM. The TGI [17] was 36.4 µM, the GI50 [18] was 3.19 µM and the TGI [18] was over 100 µM. The GI50 [19] was 10.6 µM, the TGI [19] was 48.5 µM and the GI50 [20] was 3.09 µM. It also gave a TGI [20] of 18 µM, a GI50 [21] of 5.66 µM and a TGI [21] of 20 µM. For the same compound, the GI50 [22] was 1.97 µM, the TGI [22] was 4.46 µM and the GI50 [23] was 8.67 µM. For the same compound, the TGI [23] was 26.7 µM, the GI50 [24] was 10.3 µM and the TGI [24] was 22.2 µM. For the same compound, the GI50 [25] was 6.08 µM, the TGI [25] was 30.4 µM and the GI50 [26] was 4.23 µM. It also gave a TGI [26] of 38.5 µM, a GI50 [27] of 2.39 µM and a TGI [27] of 6.41 µM. It also gave a GI50 [28] of 2.87 µM, a TGI [28] of 8.25 µM and a GI50 [29] of 5.34 µM. For the same compound, the TGI [29] was over 100 µM, the GI50 [30] was 11.9 µM and the TGI [30] was 26.6 µM. For the same compound, the GI50 [31] was 13.5 µM, the TGI [31] was 29.1 µM and the GI50 [32] was 17.2 µM. It also gave a TGI [32] of over 100 µM, a GI50 [33] of 15.4 µM and a TGI [33] of 37.9 µM. It also gave a GI50 [34] of 2.84 µM, a TGI [34] of 9.15 µM and a GI50 [35] of 3.02 µM. The TGI [35] was 10.7 µM, the GI50 [36] was 7.76 µM and the TGI [36] was 27.8 µM. For the same compound, the GI50 [37] was 10.7 µM, the TGI [37] was 22.6 µM and the GI50 [38] was 10.6 µM. The TGI [38] was 28.6 µM, the GI50 [39] was 3.15 µM and the TGI [39] was 14.5 µM. For the same compound, the GI50 [40] was 2.54 µM, the TGI [40] was 17.3 µM and the GI50 [41] was 6.54 µM. It also gave a TGI [41] of 43.9 µM, a GI50 [42] of 3 µM and a TGI [42] of 11.5 µM. The GI50 [43] was 2.38 µM, the TGI [43] was over 100 µM and the GI50 [44] was 19.3 µM. For the same compound, the TGI [44] was 39.8 µM, the GI50 [45] was 5.2 µM and the TGI [45] was 25 µM. The GI50 [46] was 5.89 µM, the TGI [46] was 23.1 µM and the GI50 [47] was 3.27 µM. It also gave a TGI [47] of 11.3 µM, a GI50 [48] of 9.85 µM and a TGI [48] of 25.6 µM. It also gave a GI50 [49] of 11.2 µM, a TGI [49] of 36.4 µM and a GI50 [50] of 20.6 µM. For the same compound, the TGI [50] was 40.9 µM, the GI50 [51] was 4.67 µM and the TGI [51] was 26.1 µM. For the same compound, the GI50 [52] was 4.39 µM, the TGI [52] was 33.4 µM and the GI50 [53] was 3.41 µM. For the same compound, the TGI [53] was 15.4 µM, the GI50 [54] was 2.87 µM and the TGI [54] was 9.8 µM. The GI50 [55] was 3.84 µM, the TGI [55] was 15.3 µM and the GI50 [56] was 6.38 µM. For the same compound, the TGI [56] was 21.1 µM, the GI50 [57] was 3.99 µM and the TGI [57] was 22 µM. For the same compound, the GI50 [58] was 4.84 µM, the TGI [58] was 88.9 µM and the GI50 [59] was 12.8 µM. The TGI [59] was over 100 µM.
